Key:
[1] = organism: Mus musculus; experiment: Inhibition of chloroform induced ventricular arrhythmia; type: functional, Cardiac ventricle
[2] = test system: Canis familiaris; experiment: No. of cases tested was measured on ouabain induced ventricular arrhythmia at 5 mg/kg, iv in dogs; 0/2; type: functional, Canis lupus familiaris, Cardiac ventricle
[3] = target: T1, Muscarinic acetylcholine receptor (Rattus norvegicus) (UniProt P08482+P08483+P08485+P08911+P10980); experiment: Inhibitory effect on muscarinic acetylcholine receptor binding affinity at a concentration of (10e -6)M; type: protein assay
[4] = target: T1, Muscarinic acetylcholine receptor (Rattus norvegicus); experiment: Inhibitory effect on muscarinic acetylcholine receptor binding affinity at a concentration of (10e -5)M; type: protein assay
[5] = test system: Canis familiaris; experiment: No. of cases tested was measured on ouabain induced ventricular arrhythmia at 5 mg/kg, iv in dogs; 0/3; type: functional, Canis lupus familiaris, Cardiac ventricle
[6] = Ratio of ED100 (Dose po required to double the prodrug pupil size in mice) to that of ED50 (50% inhibition of chloroform induced ventricular arrhythmia in mice); type: functional
[7] = test system: Canis familiaris; experiment: No. of cases tested was measured on ouabain induced ventricular arrhythmia at 5 mg/kg, iv in dogs; 3/3; type: functional, Canis lupus familiaris, Cardiac ventricle
[8] = test system: Canis familiaris; experiment: No. of cases tested was measured on ouabain induced ventricular arrhythmia at 5 mg/kg, iv in dogs; 2/3; type: functional, Canis lupus familiaris, Cardiac ventricle
[9] = test system: Canis familiaris; experiment: Antiarrhythmic activity in ouabain-induced ventricular arrhythmia in dog at compound concentration of 10 mg/kg; type: functional, Canis lupus familiaris, Heart
[10] = test system: Canis familiaris; experiment: No. of cases tested was measured on ouabain induced ventricular arrhythmia at 5 mg/kg, iv in dogs; 2/2; type: functional, Canis lupus familiaris, Cardiac ventricle
[11] = test system: Canis familiaris; experiment: No. of cases tested was measured on ouabain induced ventricular arrhythmia at 5 mg/kg, iv in dogs; 0/1; type: functional, Canis lupus familiaris, Cardiac ventricle
[12] = test system: Canis familiaris; experiment: No. of cases tested was measured on ouabain induced ventricular arrhythmia at 5 mg/kg, iv in dogs; 1/3; type: functional, Canis lupus familiaris, Cardiac ventricle
[13] = test system: Canis familiaris; experiment: No. of cases tested was measured on ouabain induced ventricular arrhythmia at 5 mg/kg, iv in dogs; 1/7; type: functional, Canis lupus familiaris, Cardiac ventricle
[14] = test system: Canis familiaris; experiment: No. of cases tested was measured on ouabain induced ventricular arrhythmia at 5 mg/kg, iv in dogs; 0/4; type: functional, Canis lupus familiaris, Cardiac ventricle
[15] = test system: Canis familiaris; experiment: No. of cases tested was measured on ouabain induced ventricular arrhythmia at 5 mg/kg, iv in dogs; 1/4; type: functional, Canis lupus familiaris, Cardiac ventricle
[16] = test system: Mus musculus; experiment: Dose (po) required to double the prodrug pupil size; type: functional
[17] = organism: Mus musculus; experiment: Compound was evaluated by measuring the 50% inhibition of chloroform induced ventricular arrhythmia in mice; type: functional; settings: Cardiac ventricle
[18] = test system: Canis familiaris; experiment: No. of cases tested was measured on ouabain induced ventricular arrhythmia at 5 mg/kg, iv in dogs; 3/6; type: functional, Canis lupus familiaris, Cardiac ventricle
[19] = test system: Canis familiaris; experiment: No. of cases tested was measured on ouabain induced ventricular arrhythmia at dose (10mg/Kg, iv); 0/2; type: functional, Canis lupus familiaris, Cardiac ventricle
[20] = test system: Canis familiaris; experiment: No. of cases tested was measured on ouabain induced ventricular arrhythmia at dose 10mg/Kg, iv; 0/3; type: functional, Canis lupus familiaris, Cardiac ventricle
[21] = test system: Canis familiaris; experiment: No. of cases tested was measured on ouabain induced ventricular arrhythmia at 5 mg/kg, iv in dogs; 6/6; type: functional, Canis lupus familiaris, Cardiac ventricle
[22] = Mus musculus, Cardiac ventricle, read-out: ED50

Row | SMILES | ED50 [1, 22] | No. positive cases/tested [2] | inhibition [3] | inhibition [4] | other results
1 | COc1ccc2c(c1)C(NCCN)c1cccnc1CO2 (configuration not stated) | > 100 mg/kg | 0 | -1% | 5% | 
2 | CCNCCNC1c2cc(OC)ccc2OCc2ncccc21 (configuration not stated) | > 100 mg/kg |  | 2% | 1% | No. positive cases/tested [5]: 0
3 | Cc1cccc(C)c1OCC(C)N (configuration not stated) [MEXILETINE] | 71 mg/kg |  | -1% | -3% | Ratio [6]: 1.7
4 | COc1ccc2c(c1)C(NCCCNC1CCCCC1)c1cccnc1CO2 (configuration not stated) | > 100 mg/kg |  | -1% | -1% | No. positive cases/tested [7]: 3
5 | CCN(CC)CCNC1c2cc(OC(C)C)ccc2OCc2ncccc21 (configuration not stated) | 53 mg/kg | 0 | 3% | 12% | 
6 | CCN(CC)CC/C=C1\c2ccccc2OCc2ncccc21 | 100 mg/kg |  | 6% | 45% | No. positive cases/tested [8]: 2
7 | CCN(CC)CCNC1c2cc(OC)ccc2OCc2ncccc21 (single isomer, unassigned; (-)) |  |  |  |  | Inhibition [9]: 94%
8 | CCN1CCCC1CNC1c2cc(OC)ccc2OCc2ncccc21 (stereo in doubt; 26) [listing 1 of 2 here] |  | 0 |  |  | ED50 [1]: 61 mg/kg
9 | CCN(CC)CC/C=C1/c2ccccc2OCc2ncccc21 | > 17 mg/kg |  | 28% | 80% | No. positive cases/tested [10]: 2
10 | COc1ccc2c(c1)C(NCCN1[C@@H](C)CC[C@@H]1C)c1cccnc1CO2 (some centres not stated) | 100 mg/kg |  | -2% | 6% | No. positive cases/tested [11]: 0
11 | COc1ccc2c(c1)C(NCCN(C(C)C)C(C)C)c1cccnc1CO2 (configuration not stated) | > 100 mg/kg | 0 | 4% | 17% | 
12 | CCN1CCCC1CNC1c2cc(OC)ccc2OCc2ncccc21 (stereo in doubt; 27) [listing 1 of 2 here] | 58 mg/kg |  |  |  | No. positive cases/tested [12]: 1
13 | CCN(CC)CCNC1c2cccnc2COc2c(OC)cccc21 (configuration not stated) | > 100 mg/kg | 0 | 12% | 37% | 
14 | CCN(CC)CCNC1c2cc(O)ccc2OCc2ncccc21 (configuration not stated) | > 100 mg/kg |  | 0% | -1% | No. positive cases/tested [13]: 1
15 | CCN(CC)CCNC1c2cc(OC)ccc2OCc2ncccc21 (single isomer, unassigned; (+)) |  |  |  |  | Inhibition [9]: 51%
16 | CCN(CC)CC(=O)NC1c2cc(OC)ccc2OCc2ncccc21 (configuration not stated) | > 100 mg/kg | 0 | -3% | 1% | 
17 | CCN(CC)CCNC1c2cc(C)ccc2OCc2ncccc21 (configuration not stated) | > 100 mg/kg |  |  |  | 
18 | COc1ccc2c(c1)C(NN1CCN(C)CC1)c1cccnc1CO2 (configuration not stated) | > 100 mg/kg | 0 | 2% | 7% | 
19 | CCN1CCCC1CNC1c2cc(OC)ccc2OCc2ncccc21 (stereo in doubt; 26) [listing 2 of 2 here] |  |  | 2% | 23% | 
20 | COc1ccc2c(c1)C(NCCN1CCOCC1)c1cccnc1CO2 (configuration not stated) | > 100 mg/kg | 0 | 0% | 0% | 
21 | CCN(CC)CCNC1c2cc(OC)c(OC)cc2OCc2ncccc21 (configuration not stated) | > 100 mg/kg | 0 | 7% | 2% | 

Row | SMILES | ED50 [1, 22] | No. positive cases/tested [2] | inhibition [3] | inhibition [4] | other results
22 | CCN(CC)CCNC1c2cc(OC)ccc2OCc2ncccc21 (configuration not stated) [listing 1 of 2 here] |  |  | -3% | 8% | 
23 | CCN(CC)CCNC1c2ccc(OC)cc2OCc2ncccc21 (configuration not stated) | > 100 mg/kg | 0 | 14% | 7% | 
24 | COc1ccc2c(c1)C(NCCN(C)C)c1cccnc1CO2 (configuration not stated) | > 100 mg/kg | 0 | 3% | 15% | 
25 | COc1ccc2c(c1)C(NCCN1CCCC1)c1cccnc1CO2 (configuration not stated) | > 100 mg/kg |  | 3% | 12% | No. positive cases/tested [5]: 0
26 | COc1ccc2c(c1)C(NCCN1[C@H](C)CC[C@@H]1C)c1cccnc1CO2 (some centres not stated) | > 100 mg/kg |  | 3% | 15% | No. positive cases/tested [12]: 1
27 | CCN(CC)CC/C=C1\c2cc(OC)ccc2OCc2ncccc21 | > 100 mg/kg |  | 3% | 27% | No. positive cases/tested [14]: 0
28 | CCN(CC)CCSC1c2cc(OC)ccc2OCc2ncccc21 (configuration not stated) | 31 mg/kg |  | 1% | 20% | No. positive cases/tested [5]: 0
29 | COc1ccc2c(c1)C(NCCN1C(C)CCCC1C)c1cccnc1CO2 (configuration not stated) | > 100 mg/kg |  | 2% | 11% | No. positive cases/tested [12]: 1
30 | COc1ccc2c(c1)C(N1CCN(C)CC1)c1cccnc1CO2 (configuration not stated) | 81 mg/kg | 0 | 0% | 11% | 
31 | CCN(CC)CC/C=C1/c2cc(OC)ccc2OCc2ncccc21 | 14 mg/kg |  | 5% | 26% | No. positive cases/tested [15]: 1
32 | CCN(CC)CCNC1c2cc(OC)ccc2OCc2ncccc21 (configuration not stated) [listing 2 of 2 here] |  |  |  |  | ED100 [16]: 194 mg/kg; Ratio [6]: 4; ED50 [17]: 62 mg/kg; No. positive cases/tested [18]: 3
33 | CCN(CC)CCNC1c2cc(Cl)ccc2OCc2ncccc21 (configuration not stated) | > 100 mg/kg |  |  |  | 
34 | CCN(CC)CCNC1c2cc(F)ccc2OCc2ncccc21 (configuration not stated) | > 100 mg/kg | 0 |  |  | 
35 | CCN(CC)CCCNC1c2cc(OC)ccc2OCc2ncccc21 (configuration not stated) | 50 mg/kg |  | 4% | 24% | No. positive cases/tested [12]: 1
36 | COc1ccc2c(c1)C(NCCCN(C)C)c1cccnc1CO2 (configuration not stated) | > 100 mg/kg | 0 | 1% | 5% | 
37 | CCN(CC)CCNC1c2cc(N(C)C)ccc2OCc2ncccc21 (configuration not stated) | > 100 mg/kg |  | 4% | 19% | No. positive cases/tested [19]: 0
38 | CCN1CCCC1CNC1c2cc(OC)ccc2OCc2ncccc21 (stereo in doubt; 27) [listing 2 of 2 here] |  |  | 3% | 25% | 
39 | CCN(CC)CCNC1c2ccccc2OCc2ncccc21 (configuration not stated) | 93 mg/kg |  |  |  | No. positive cases/tested [20]: 0
40 | CCN(CC)CCNC1c2cc(OC)ccc2OCc2ncccc21 (racemic) |  |  |  |  | Inhibition [9]: 76%
41 | CC(C)N(CCC(C(N)=O)(c1ccccc1)c1ccccn1)C(C)C (configuration not stated) [DISOPYRAMIDE] | 35 mg/kg |  | -1% | 7% | No. positive cases/tested [21]: 6; ED100 [16]: 20 mg/kg; Ratio [6]: 0.6

Reference: ChEMBL document CHEMBL1125015, “Synthesis and antiarrhythmic activity of 5,11-dihydro[1]benzoxepino[3,4-b]pyridines” (1990)
